Test results: patent publication US20100069340A1, “PHARMACEUTICAL COMPOSITIONS OF AN SRC KINASE INHIBITOR AND AN AROMATASE INHIBITOR” (Wyeth, priority 2008, published 2010)

Columns and labels:
MCF7 = test: Cell proliferation assay (CellTiter Glo), MCF7; assay type: cell-based
Description: (§1) Cell lines were obtained from ATCC. Estrogen was obtained from SIGMA, 4-hydroxytamoxifen was obtained from SIGMA, Bosutinib was used for these studies. Charcoal-stripped serum and phenol red-free medium was obtained from Invitrogen. CellTiter Glo was obtained from Promega.
(§2) Cell cultures. Proliferation assays with cells in complete fetal calf serum were performed with medium containing phenol red. For all assays examining estrogen-dependence, cells were cultured in phenol red-free medium; DMEM/F12 (MCF7), RPMI1640 (MDA-MB-361, T47D) MEM (BT20, MDA-MB-231) McCoys5A modified (SKBR3), Leibowitz' L15 medium supplemented with 10 ng/mL insulin (MDA-MB-435 and MDA-MB-468) with 10% fetal bovine serum supplemented with glutamine and gentamicin. For proliferation assays, trypsinized cells were subjected to three cycles of centrifugation and resuspension in phenol red-free medium supplemented with charcoal stripped medium (5% final), glutamine and Pen/Strep. Cells were plated on day 0, with or without estrogen (10 nM final concentration). On day 1, 4-hydroxytamoxifen and SKI-606 or DMSO were added as a serial dilution. Cells were incubated for 7 days, after which CellTiter Glo (Promega) was added as recommended by the manufacturer. After mixing and two hours incubation on the bench, plates were read on an Envision reader. […] The 10 uM data point was dropped for these two lines since there was a clear plateau prior to the sharp drop in luminescence observed at 10 uM compound. The IC50 was calculated using a floating minima corresponding to the lowest luminescence value at 5 uM.
(§3) Cell proliferation assays were performed in two formats; a three day proliferation assay in fully supplemented medium with phenol red, and a 7 day proliferation assay in phenol red free medium supplemented with charcoal-stripped medium. […] ER positive T47D cells were slightly more sensitive to SKI-606 in the presence of estrogen. BT20 cells were equally sensitive to SKI-606 in stripped serum medium, regardless of whether estrogen was present.
(§4) Proliferation data for SKI-606 in various breast tumor lines in complete medium (10% FCS) and charcoal stripped serum with no phenol red (no E2, E2) with and without 10 nM estrogen. The complete medium data were obtained in 3-day assays, while stripped serum assays were extended for 7 days with one change of medium at day 5. The IC50 values for the BT20 line was calculated using the “plateau” cell number evident at 5 μM SKI-606.

MDA-MB-361 = test: Cell proliferation assay (CellTiter Glo), MDA-MB-361; assay type: cell-based
Description: as §1, §2, §3, §4

Substance: 4-hydroxytamoxifen
- estrogen-independent cell proliferation (MCF7; MCF7, absence of estrogen): inhibits
- effect on estrogen-stimulated proliferation (MCF7; MCF7, presence of estrogen): inhibited in a dose-dependent manner
- cell proliferation in the absence of estrogen (MDA-MB-361; MDA-MB-361, absence of estrogen): little effect
- effect on estrogen-stimulated proliferation (MDA-MB-361; MDA-MB-361, presence of estrogen): inhibited in a dose-dependent manner
